Results from ChEMBL document CHEMBL1124460, “Synthesis and biological evaluation of [125I]- and [123I]-4-iododexetimide, a potent muscarinic cholinergic receptor antagonist” (J Med Chem, 1989).

Target: Muscarinic acetylcholine receptor
Experiment: Displacement of [3H]N-methylscopolamine from rat brain homogenate
Assay type: tissue-based
Conditions: not given

Row | IC50 | SMILES
1 | 98 nM | O=C1CCC(c2ccccc2)(C2CCN(Cc3ccc(F)cc3)CC2)C(=O)N1 (configuration not stated)
2 | 27 nM | O=C1CCC(c2ccccc2)(C2CCN(Cc3ccc(Cl)cc3)CC2)C(=O)N1 (configuration not stated)
3 | 38 nM | O=C1CCC(c2ccccc2)(C2CCN(Cc3ccc(Br)cc3)CC2)C(=O)N1 (configuration not stated)
4 | 22 nM | O=C1CCC(c2ccccc2)(C2CCN(Cc3cccc(I)c3)CC2)C(=O)N1 (configuration not stated)

Further lines, the compound ahead of its results:

Row | SMILES | IC50
5 | O=C1CCC(c2ccccc2)(C2CCN(Cc3ccccc3I)CC2)C(=O)N1 (configuration not stated) | 500 nM
6 | O=C1CCC(c2ccccc2)(C2CCN(Cc3cccc(F)c3)CC2)C(=O)N1 (configuration not stated) | 21 nM
7 | O=C1CCC(c2ccccc2)(C2CCN(Cc3ccccc3)CC2)C(=O)N1 (configuration not stated) [BENZETIMIDE] | 15 nM
8 | O=C1CCC(c2ccccc2)(C2CCN(Cc3cccc(Cl)c3)CC2)C(=O)N1 (configuration not stated) | 26 nM
9 | O=C1CCC(c2ccccc2)(C2CCN(Cc3cccc(Br)c3)CC2)C(=O)N1 (configuration not stated) | 24 nM
10 | O=C1CCC(c2ccccc2)(C2CCN(Cc3ccccc3F)CC2)C(=O)N1 (configuration not stated) | 32 nM
11 | O=C1CCC(c2ccccc2)(C2CCN(Cc3ccc(I)cc3)CC2)C(=O)N1 (configuration not stated) | 17 nM
12 | O=C1CCC(c2ccccc2)(C2CCN(Cc3ccccc3Cl)CC2)C(=O)N1 (configuration not stated) | 460 nM
13 | O=C1CCC(c2ccccc2)(C2CCN(Cc3ccccc3Br)CC2)C(=O)N1 (configuration not stated) | 500 nM

Target: Muscarinic acetylcholine receptor
Experiment: Ability (10 ug/kg) to inhibit binding of [125I]iododexetimide to muscarinic receptor in mice
Conditions: not given

Row | SMILES | IC50
14 | O=C1CC[C@@](c2ccccc2)(C2CCN(Cc3ccccc3)CC2)C(=O)N1 [DEXETIMIDE] | 3.3 nM
15 | Cl.O=C1CCC(c2ccccc2)(C2CCN(Cc3ccccc3)CC2)C(=O)N1 (configuration not stated) [BENZETIMIDE HYDROCHLORIDE] | 8900 nM

Tested on: not listed separately
Experiment: Ability (10 ug/kg) to inhibit binding of [125I]iododexetimide to adrenergic receptor in mice
Conditions: not given

Row | IC50 | SMILES
16 | 13000 nM | COc1cc2nc(N3CCN(C(=O)c4ccco4)CC3)nc(N)c2cc1OC [PRAZOSIN]

Tested on: not listed separately
Experiment: Ability (10 ug/kg) to inhibit binding of [125I]iododexetimide to 5-hydroxytryptamine receptor in mice
Conditions: Mus musculus

Row | IC50 | SMILES
17 | 130000 nM | O=C(c1ccc(F)cc1)C1CCN(CCn2c(=O)[nH]c3ccccc3c2=O)CC1 [KETANSERIN]
